Data: US6620831B2, “Indazoles substituted with 1,1-dioxoisothiazolidine useful as inhibitors of cell proliferation” (LG Life Sciences Ltd., priority 2000, dated 2003)

Each compound was assayed against T1, CDK2/cyclin A (Homo sapiens, UniProt P24941) (assay: CDK2 inhibitory activity (CDK2/cyclin A, [gamma-32P] ATP, histon H1 or Rb protein substrate)). Settings: first IC50 column (c1) of Table 1.
T1 construct: made in house; host or cells: insect ('worm') cells co-infected with baculoviruses
Type: biochemical
Source text: CDK2 enzyme was obtained from either extract from the worm cell co-infected with baculovirus which expresses a CDK2 gene and baculovirus which expresses a cyclin A gene, or active enzyme purified therefrom. CDK4 was also obtained from either extract from the worm cell co-infected with baculovirus which expresses a CDK4 gene and baculovirus which expresses a cyclin D1 gene. As substrates, histon H1 or Rb protein was used for CDK2, and Rb protein for CDK4. The radioactive activities in substrates were determined by reacting compounds diluted with each concentration with a proper quantity of CDK2/cyclin A or CDK4/cyclin D1 and substrate protein, and [gamma-32P labeled] ATP, and then separating the substrates.
Inhibitory abilities of inhibitors according to the present invention for each enzyme activity were expressed as IC50 values, which were determined in accordance with the method as described above.

SMILES	IC50 [nM]
CCOCCOCCOc1ccc(CC(=O)Nc2n[nH]c3ccc(N4CCCS4(=O)=O)cc23)cc1 [Compound 59, N-[5-(1,1-dioxo-1λ^6-isothiazolidin-2-yl)-1H-indazol-3-yl]-2-4-[2-(2-ethoxyethoxy)ethoxy]phenylacetamide]	< 100
O=C(CCc1ccccc1)Nc1n[nH]c2ccc(N3CCCS3(=O)=O)cc12 [Compound 25, N-[5-(1,1-dioxo-1λ^6-isothiazolidin-2-yl)-1H-indazol-3-yl]-3-phenylpropanamide]	< 1000
CSc1ccc(CC(=O)Nc2n[nH]c3ccc(N4CCCS4(=O)=O)cc23)cc1 [Compound 20, N-[5-(1,1-dioxo-1λ^6-isothiazolidin-2-yl)-1H-indazol-3-yl]-2-[4-(methylsulfanil)phenyl]acetamide]	< 50
O=C(Cn1cnc(-c2ccccc2)c1)Nc1n[nH]c2ccc(N3CCCS3(=O)=O)cc12 [Compound 47, N-[5-(1,1-dioxo-1λ^6-isothiazolidin-2-yl)-1H-indazol-3-yl]-2-(4-phenyl-1H-imidazol-1-yl)acetamide]	< 50
O=C(Cc1cccc(Br)c1)Nc1n[nH]c2ccc(N3CCCS3(=O)=O)cc12 [Compound 11, 2-(3-bromophenyl)-N-[5-(1,1-dioxo-1λ^6-isothiazolidin-2-yl)-1H-indazol-3-yl]acetamide]	< 50
O=C(CN1CCc2ccccc2C1)Nc1n[nH]c2ccc(N3CCCS3(=O)=O)cc12 [Compound 49, 2-[3,4-dihydro-2(1H)-isoquinolinyl]-N-[5-(1,1-dioxo-1λ^6-isothiazolidin-2-yl)-1H-indazol-3-yl]acetamide]	< 1000
O=C(Cc1ccc(N(Cc2ccccc2)Cc2ccccc2)cc1)Nc1n[nH]c2ccc(N3CCCS3(=O)=O)cc12 [Compound 5, 2-[4-(dibenzylamino)phenyl]-N-[5-(1,1-dioxo-1λ^6-isothiazolidin-2-yl)-1H-indazol-3-yl]acetamide]	< 500
CCN(CC)c1ccc(CC(=O)Nc2n[nH]c3ccc(N4CCCS4(=O)=O)cc23)cc1 [Compound 73, 2-[4-(diethylamino)phenyl]-N-[5-(1,1-dioxo-1λ^6-isothiazolidin-2-yl)-1H-indazol-3-yl]acetamide]	< 50
O=C(Cc1ccc2ccccc2c1)Nc1n[nH]c2ccc(N3CCCS3(=O)=O)cc12 [Compound 17, N-[5-(1,1-dioxo-1λ^6-isothiazolidin-2-yl)-1H-indazol-3-yl]-2-(2-naphthyl)acetamide]	< 50
CCOc1ccc(CC(=O)Nc2n[nH]c3ccc(N4CCCS4(=O)=O)cc23)cc1S(N)(=O)=O [Compound 80, 2-[3-(aminosulfonyl)-4-ethoxyphenyl]-N-[5-(1,1-dioxo-1λ^6-isothiazolidin-2-yl)-1H-indazol-3-yl]acetamide]	< 1000
CCOc1ccc(CC(=O)Nc2n[nH]c3ccc(N4CCCS4(=O)=O)cc23)cc1 [Compound 42, N-[5-(1,1-dioxo-1λ^6-isothiazolidin-2-yl)-1H-indazol-3-yl]-2-(4-ethoxyphenyl)acetamide]	< 50
Nc1nc(CC(=O)Nc2n[nH]c3ccc(N4CCCS4(=O)=O)cc23)cs1 [Compound 60, 2-(2-amino-1,3-thiazol-4-yl)-N-[5-(1,1-dioxo-1λ^6-isothiazolidin-2-yl)-1H-indazol-3-yl]acetamide]	< 500
Nc1ccc(CC(=O)Nc2n[nH]c3ccc(N4CCCS4(=O)=O)cc23)cc1 [Compound 7, 2-(4-aminophenyl)-N-[5-(1,1-dioxo-1λ^6-isothiazolidin-2-yl)-1H-indazol-3-yl]acetamide]	< 50
CCOc1ccc(CC(=O)Nc2n[nH]c3ccc(N4CCCS4(=O)=O)cc23)cc1S(=O)(=O)N1CCOCC1 [Compound 79, N-[5-(1,1-dioxo-1λ^6-isothiazolidin-2-yl)-1H-indazol-3-yl]-2-[4-ethoxy-3-(4-morpholinylsulfonyl)phenyl]acetamide]	< 1000
O=C(Nc1n[nH]c2ccc(N3CCCS3(=O)=O)cc12)C(c1ccccc1)C1CCCC1 (centres unmarked) [Compound 56, 2-cyclopentyl-N-[5-(1,1-dioxo-1λ^6-isothiazolidin-2-yl)-1H-indazol-3-yl]-2-phenylacetamide]	< 100000
O=C(Cc1ccc(OCc2ccccc2)cc1)Nc1n[nH]c2ccc(N3CCCS3(=O)=O)cc12 [Compound 3, 2-[4-(benzyloxy)phenyl]-N-[5-(1,1-dioxo-1λ^6-isothiazolidin-2-yl)-1H-indazol-3-yl]acetamide]	< 100
CCOc1ccccc1N1CCN(CC(=O)Nc2n[nH]c3ccc(N4CCCS4(=O)=O)cc23)CC1 [Compound 52, N-[5-(1,1-dioxo-1λ^6-isothiazolidin-2-yl)-1H-indazol-3-yl]-2-[4-(2-ethoxyphenyl)-1-piperazinyl]acetamide]	< 10000
CCOc1cccc(CC(=O)Nc2n[nH]c3ccc(N4CCCS4(=O)=O)cc23)c1 [Compound 78, N-[5-(1,1-dioxo-1λ^6-isothiazolidin-2-yl)-1H-indazol-3-yl]-2-(3-ethoxyphenyl)acetamide]	< 50

SMILES	IC50 [nM]
CC(C)c1ccc(CC(=O)Nc2n[nH]c3ccc(N4CCCS4(=O)=O)cc23)cc1 [Compound 26, N-[5-(1,1-dioxo-1λ^6-isothiazolidin-2-yl)-1H-indazol-3-yl]-2-(4-isopropylphenyl)acetamide]	< 50
COCCOCCOCCOc1ccc(CC(=O)Nc2n[nH]c3ccc(N4CCCS4(=O)=O)cc23)cc1 [Compound 66, N-[5-(1,1-dioxo-1λ^6-isothiazolidin-2-yl)-1H-indazol-3-yl]-2-(4-2-[2-(2-methoxyethoxy)ethoxy]ethoxyphenyl)acetamide]	< 100
O=C(Cc1cccc(Cl)c1)Nc1n[nH]c2ccc(N3CCCS3(=O)=O)cc12 [Compound 2, 2-(3-chlorophenyl)-N-[5-(1,1-dioxo-1λ^6-isothiazolidin-2-yl)-1H-indazol-3-yl]acetamide]	< 50
O=C(Cc1ccc(O)cc1)Nc1n[nH]c2ccc(N3CCCS3(=O)=O)cc12 [Compound 4, N-[5-(1,1-dioxo-1λ^6-isothiazolidin-2-yl)-1H-indazol-3-yl]-2-(4-hydroxyphenyl)acetamide]	< 50
CC(=O)c1ccc(N2CCN(CC(=O)Nc3n[nH]c4ccc(N5CCCS5(=O)=O)cc34)CC2)cc1 [Compound 53, 2-[4-(4-acetylphenyl)-1-piperazinyl]-N-[5-(1,1-dioxo-1λ^6-isothiazolidin-2-yl)-1H-indazol-3-yl]acetamide]	< 10000
O=C(CN1CCOCC1)Nc1n[nH]c2ccc(N3CCCS3(=O)=O)cc12 [Compound 31, N-[5-(1,1-dioxo-1λ^6-isothiazolidin-2-yl)-1H-indazol-3-yl]-2-(4-morpholinyl)acetamide]	< 10000
NCCOc1ccc(CC(=O)Nc2n[nH]c3ccc(N4CCCS4(=O)=O)cc23)cc1 [Compound 75, 2-[4-(2-aminoethoxy)phenyl]-N-[5-(1,1-dioxo-1λ^6-isothiazolidin-2-yl)-1H-indazol-3-yl]acetamide]	< 100
O=C(Cn1cnc(-c2ccc3ccccc3c2)c1)Nc1n[nH]c2ccc(N3CCCS3(=O)=O)cc12 [Compound 62, N-[5-(1,1-dioxo-1λ^6-isothiazolidin-2-yl)-1H-indazol-3-yl]-2-[4-(2-naphthyl)-1H-imidazol-1-yl]acetamide]	< 50
CCNc1cccc(CC(=O)Nc2n[nH]c3ccc(N4CCCS4(=O)=O)cc23)c1 [Compound 69, N-[5-(1,1-dioxo-1λ^6-isothiazolidin-2-yl)-1H-indazol-3-yl]-2-[3-(ethylamino)phenyl]acetamide]	< 500
O=C(Cc1ccc(Cl)c(Cl)c1)Nc1n[nH]c2ccc(N3CCCS3(=O)=O)cc12 [Compound 24, 2-(3,4-dichlorophenyl)-N-[5-(1,1-dioxo-1λ^6-isothiazolidin-2-yl)-1H-indazol-3-yl]acetamide]	< 50
O=C(Cc1cccc2ccccc12)Nc1n[nH]c2ccc(N3CCCS3(=O)=O)cc12 [Compound 16, N-[5-(1,1-dioxo-1λ^6-isothiazolidin-2-yl)-1H-indazol-3-yl]-2-(1-naphthyl)acetamide]	< 50
COc1ccc(N2CCN(CC(=O)Nc3n[nH]c4ccc(N5CCCS5(=O)=O)cc34)CC2)cc1 [Compound 51, N-[5-(1,1-dioxo-1λ^6-isothiazolidin-2-yl)-1H-indazol-3-yl]-2-[4-(4-methoxyphenyl)-1-piperazinyl]acetamide]	< 10000
O=C(Cn1cnc(-c2ccc(-c3ccccc3)cc2)c1)Nc1n[nH]c2ccc(N3CCCS3(=O)=O)cc12 [Compound 63, 2-(4-[1,1′-biphenyl]-4-yl-1H-imidazol-1-yl)-N-[5-(1,1-dioxo-1λ^6-isothiazolidin-2-yl)-1H-indazol-3-yl]acetamide]	< 500
O=C(Cc1ccc(CN2CCOCC2)cc1)Nc1n[nH]c2ccc(N3CCCS3(=O)=O)cc12 [Compound 43, N-[5-(1,1-dioxo-1λ^6-isothiazolidin-2-yl)-1H-indazol-3-yl]-2-[4-(4-morpholinylmethyl)phenyl]acetamide]	< 100
O=C(Cc1ccc(F)cc1)Nc1n[nH]c2ccc(N3CCCS3(=O)=O)cc12 [Compound 9, N-[5-(1,1-dioxo-1λ^6-isothiazolidin-2-yl)-1H-indazol-3-yl]-2-(4-fluorophenyl)acetamide]	< 50
CN1CCN(S(=O)(=O)c2ccc(CC(=O)Nc3n[nH]c4ccc(N5CCCS5(=O)=O)cc34)cc2)CC1 [Compound 40, N-[5-(1,1-dioxo-1λ^6-isothiazolidin-2-yl)-1H-indazol-3-yl]-2-4-[(4-methyl-1-piperazinyl)sulfonyl]phenylacetamide]	< 1000
Cc1ccc(CC(=O)Nc2n[nH]c3ccc(N4CCCS4(=O)=O)cc23)cc1 [Compound 28, N-[5-(1,1-dioxo-1λ^6-isothiazolidin-2-yl)-1H-indazol-3-yl]-2-(4-methylphenyl)acetamide]	< 50
